The text below walks through data of article PMC8424644, “Thermodynamic Stability and Speciation of Ga(III) and Zr(IV) Complexes with High-Denticity Hydroxamate Chelators” (Inorganic Chemistry, 2021).

The nature of data set [1]: pGa calculation (ligand sequestering ability). In kind it is physicochemical. The note with it: pGa = −log[Ga(III)free], pH 7.4, cL = 10 μM, cGa(III) = 1 μM. From the text:
Despite a large variety of PET chelators synthesized and tested in order to provide strong coordination of Ga(III) and Zr(IV) in vivo, until now it is has been hard to avoid the release of these metal ions in the body. Here we report two new Ga(III) and Zr(IV) hydroxamate chelators, designed to achieve an efficient sequestering of these metal ions but also to understand how the cyclization and the introduction of an additional hydroxamate group influences the stability of Zr(IV) complexes. Therefore, it is important to evaluate and compare the Ga(III)- and Zr(IV)-sequestering abilities of H3L1 and H4L2 with those of other chelators. However, the direct comparison of the stability constants of metal complexes is not straightforward, and other tools taking into account all the physicochemical properties of the ligands, i.e. their denticity, coordination modes, and acid–base properties, should be used.[52] In order to reliably compare the chelating abilities of H3L1 and H4L2 toward Ga(III) and Zr(IV) ions, the pM values were calculated. pFe was originally introduced by Raymond for the comparison of iron-siderophore systems;[53] pGa = −log[Ga(III)free] and pZr = −log[Zr(IV)free] were calculated at pH 7.4 with cL = 10 μM and cGa(III)/Zr(IV) = 1 μM (Table 2).

Data set [2] can be described thus: Fe(III)-L + Zr(IV)-NTA metal–metal competition UV–vis titrations. The data set is classed as physicochemical. The note with it: log β[ZrL2] vs log β[ZrL1].

`O=C1CCCN(O)C(=O)CCCNC(=O)CCCN(O)C(=O)CCCNC(=O)CCCN(O)C(=O)CCCN1` [H3L1, 1,11,21-Trihydroxy-1,6,11,16,21,26-hexaazacyclotriacontane-2,7,12,17,22,27-hexaone]: the pGa in data set [1] is 22.5. Take `N[C@H]1CCCCNC(=O)CCCN(O)C(=O)CCCNC(=O)CCCN(O)C(=O)CCCNC(=O)CCCN(O)C(=O)CCCNC(=O)CCCN(O)C(=O)CCCNC1=O` [H4L2, (S)-43-Amino-6,16,26,36-tetrahydroxy-1,6,11,16,21,26,31,36,41-nonaazacycloheptatetracontane-2,7,12,17,22,27,32,37,42-nonaone]: the pGa in data set [1] is on record as 22.3. Moreover, the “increase in log β of the Zr(IV) complex with respect to Zr(IV)-H3L1” value in data set [2] is 8.5 orders of magnitude.
